Results published in PubChem BioAssay (NCI).
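Each compound was tested at five concentrations against cells in 96-well plates for 48 hours. GI50: concentration for 50% inhibition of growth. At the TGI there is no net growth.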

What was measured:
Assay in all cases: growth of human tumour cells (NCI), 48 h
[1] = tested on: HOP-18 NSCLC
[2] = tested on: M14 melanoma
[3] = tested on: DLD-1 colon
[4] = tested on: HL-60(TB) leukemia
[5] = tested on: M19-MEL melanoma
[6] = tested on: LXFL 529 NSCLC
[7] = tested on: DMS 273 small cell lung
[8] = tested on: NCI-H226 lung
[9] = tested on: KM20L2 colon
[10] = tested on: SNB-78 CNS
[11] = tested on: SR leukemia
[12] = tested on: DMS 114 small cell lung
[13] = tested on: XF 498 CNS
[14] = tested on: NCI-H460 lung
[15] = tested on: RXF-631 renal

Row | Compound | TGI [1] | TGI [2] | TGI [3] | TGI [4] | TGI [5] | TGI [6] | TGI [7] | GI50 [8] | TGI [8] | GI50 [9] | TGI [9] | TGI [10] | TGI [11] | GI50 [12] | TGI [12] | TGI [13] | TGI [14] | TGI [15]
1 | COc1ccc(-c2cc(=O)c3cc4c(cc3[nH]2)OCO4)c(OC)c1 | > 100 µM | > 100 µM | > 100 µM | 46.3 µM | > 100 µM | > 100 µM | > 100 µM | 93.5 µM | > 100 µM | 42.7 µM | > 100 µM | > 100 µM | 74.2 µM | 26.1 µM | 87.3 µM | 97.9 µM | > 100 µM | 
2 | O=C(CSc1nc(-c2ccccc2)c(-c2ccccc2)[nH]1)N/N=C/c1ccc([N+](=O)[O-])cc1 |  | 31.1 µM | 38.5 µM | 71.1 µM | 30.8 µM | 38.3 µM | 27.9 µM |  | 32.8 µM |  | 23.2 µM | 62.5 µM | > 100 µM |  | 55.8 µM | 28 µM | 43.2 µM | 
3 | Nc1c2ccccc2nc2nccnc12 | > 100 µM | > 100 µM | > 100 µM | > 100 µM | > 100 µM |  | > 100 µM |  | > 100 µM |  | > 100 µM | > 100 µM | > 100 µM |  | > 100 µM | > 100 µM | > 100 µM | 
4 | O=C1CCN(CCC(F)(F)C(F)(F)C(F)(F)C(F)(F)F)C(=S)N1 |  | > 100 µM |  | > 100 µM | > 100 µM | > 100 µM | > 100 µM |  | > 100 µM |  | > 100 µM | > 100 µM | > 100 µM |  | > 100 µM | > 100 µM | > 100 µM | 
5 | CN1C[C@@H]2CC(=O)CC[C@@H]2C[C@H]1C#N |  | > 100 µM | > 100 µM | > 100 µM |  | > 100 µM |  |  | > 100 µM |  | > 100 µM |  |  |  | > 100 µM | > 100 µM | > 100 µM | > 100 µM
6 | N#CC(NNC(=O)Cc1ccccc1)c1ccc(O)cc1 (stereo not given) | > 100 µM | > 100 µM | > 100 µM | > 100 µM | > 100 µM | > 100 µM | > 100 µM |  | > 100 µM |  |  |  | > 100 µM |  | > 100 µM |  | > 100 µM | 
7 | COc1ccc(/C=C2\C(=O)Nc3ccccc32)cc1OC | > 100 µM | > 100 µM |  | > 100 µM |  | > 100 µM | > 100 µM |  | > 100 µM |  | > 100 µM | > 100 µM |  |  |  | > 100 µM | > 100 µM | 
8 | NC(=S)N/N=C/c1cn(CCCl)c2ccccc12 | > 100 µM | > 100 µM | > 100 µM | 53.8 µM | > 100 µM | > 100 µM |  |  |  |  |  | > 100 µM | > 100 µM |  | > 100 µM |  |  | 
9 | COC(=O)C(=O)C(C(=O)C(=O)Nc1ccccc1C(N)=O)c1nc2ccc([N+](=O)[O-])cc2[nH]c1=O (stereo not given) | > 100 µM | > 100 µM | > 100 µM | > 100 µM | > 100 µM | > 100 µM | > 100 µM |  | > 100 µM |  | > 100 µM | > 100 µM | > 100 µM |  |  | > 100 µM | > 100 µM | > 100 µM
10 | CNc1cccc(-c2cc(=O)c3cc4c(cc3[nH]2)OCO4)c1 | > 100 µM | > 100 µM | 0.969 µM | 2.89 µM | > 100 µM | > 100 µM | 16.9 µM |  | 8.71 µM |  |  | > 100 µM | > 100 µM |  | 7.84 µM | > 100 µM | > 100 µM | 
11 | CC1=N/C(=C\c2ccc(N)cc2)C(=O)N1Nc1nnc(NN2C(=O)/C(=C/c3ccc(N)cc3)N=C2C)c2ccccc12 | > 100 µM | > 100 µM | > 100 µM | 56.1 µM | > 100 µM | > 100 µM | > 100 µM |  | 56.5 µM |  | > 100 µM |  | > 100 µM |  |  |  | > 100 µM | 
12 | CCC1CN2CCc3cc(OC)c(OC)cc3C2CC1CC1c2cc(OC)c(OC)cc2CCN1C(=O)C(Cc1c[nH]c2ccccc12)NC(=O)OC(C)(C)C (stereo not given) | 18.7 µM | 3.29 µM | 27.4 µM | 3.8 µM | 3.11 µM | 10.8 µM | 19.1 µM |  | 27.6 µM |  | 3.8 µM | 40.5 µM | 13.8 µM |  | 3.06 µM | 3.19 µM | 7.15 µM | 
13 | CC1OC(n2ccc3ccc([N+](=O)[O-])cc32)C(O)C(O)C1O (stereo not given) |  | > 100 µM | > 100 µM | > 100 µM | > 100 µM | > 100 µM | > 100 µM |  | > 100 µM |  | > 100 µM | > 100 µM | > 100 µM |  | > 100 µM | > 100 µM | > 100 µM | 
